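Interpolation was linear, between the two tested concentrations surrounding the appropriate level; five concentrations were tested over 48 hours in 96-well plates. TGI marks complete inhibition of growth.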
Tests used:
Test in all cases: NCI anticancer screen, dose series, 48 h
BT-549 breast = tested on: BT-549 breast
DU-145 prostate = tested on: DU-145 prostate
HCC-2998 colon = tested on: HCC-2998 colon
IGROV1 ovarian = tested on: IGROV1 ovarian
OVCAR-3 ovarian = tested on: OVCAR-3 ovarian
OVCAR-8 ovarian = tested on: OVCAR-8 ovarian
SK-MEL-5 melanoma = tested on: SK-MEL-5 melanoma
SN12C renal = tested on: SN12C renal
SNB-75 CNS = tested on: SNB-75 CNS

SMILES | TGI (BT-549 breast) | TGI (DU-145 prostate) | TGI (HCC-2998 colon) | TGI (IGROV1 ovarian) | TGI (OVCAR-3 ovarian) | TGI (OVCAR-8 ovarian) | TGI (SK-MEL-5 melanoma) | TGI (SN12C renal) | TGI (SNB-75 CNS)
Cc1cc(S(=O)(=O)Nc2n[nH]c(Nc3ccc(Cl)cc3)n2)c(S)cc1Cl | > 100 µM | > 100 µM | > 100 µM | > 100 µM | > 100 µM | > 100 µM | > 100 µM | > 100 µM | > 100 µM
COc1ccc(N=NC(=O)NC(Cc2ccccc2)C(=O)O)cc1 (configuration not stated) | > 100 µM | > 100 µM | > 100 µM | > 100 µM | > 100 µM | > 100 µM | > 100 µM | > 100 µM | > 100 µM
CCCCNC(=O)c1cc2c(cc1Cl)Sc1nccn1S2(=O)=O | > 100 µM | > 100 µM | > 100 µM | > 100 µM | > 100 µM | > 100 µM | 63.7 µM | > 100 µM | > 100 µM
O=c1cc(N=Nc2ccc(Br)cc2)[nH]c(=S)[nH]1 | > 100 µM | > 100 µM | 38.6 µM | > 100 µM | 28.9 µM | 51.3 µM | > 100 µM | > 100 µM | > 100 µM
Cc1ccc(NC(Nc2ccc(C)cc2C)=C(C(Cl)=C(Cl)Cl)[N+](=O)[O-])c(C)c1 | 38.8 µM | 27.9 µM | 32.4 µM | 29.2 µM | 29.7 µM | 33.9 µM | 14.4 µM | 33 µM | 22.1 µM
O=C(CC(=O)N1N=C(N2CCCCC2)CC1c1ccccc1)Nc1ccccc1 (configuration not stated) | > 100 µM | > 100 µM | > 100 µM | > 100 µM | > 100 µM | > 100 µM | > 100 µM | > 100 µM | > 100 µM
CN(C)CCCc1cccc2[nH]c3c(c12)CN(C)CC3 | > 100 µM | > 100 µM | > 100 µM | > 100 µM | > 100 µM | > 100 µM | > 100 µM | > 100 µM | > 100 µM
CC(NC(=O)/C(=C/c1ccccc1)NC(=O)c1ccccc1)C(=O)O (configuration not stated) | > 100 µM | > 100 µM | > 100 µM | > 100 µM | > 100 µM | > 100 µM | > 100 µM | > 100 µM | > 100 µM
CN(C)CCCN1C(=S)N(CCCN(C)C)c2c3ccccc3nc3c([N+](=O)[O-])ccc1c23 | 36.4 µM | 19.8 µM | 14.5 µM | 16.9 µM | 24.4 µM | 22.5 µM | 18.8 µM | 18.1 µM | 23.1 µM
CCCCCCCCCCCCCCCCCc1cccc(OCOCCOC)c1C(=O)O | 31.6 µM | 33.2 µM | 36 µM | 33.5 µM | 36.9 µM | 31.7 µM | 39.1 µM | 46.6 µM | 31.1 µM
CNNC1=NS(=O)(=O)c2cc(C#N)c(Cl)cc2S1 | > 10 µM | > 10 µM | > 10 µM | > 10 µM | > 10 µM | > 10 µM | > 10 µM | > 10 µM | > 10 µM
CCCNC(=S)/N=C/c1c(O)cc(C)oc1=O | > 100 µM | > 100 µM | > 100 µM | > 100 µM | > 100 µM | > 100 µM | > 100 µM | > 100 µM | > 100 µM
O=C1C[C@H](c2ccccc2)O[C@@H](c2ccccc2)C1 | > 100 µM | > 100 µM | > 100 µM | > 100 µM | > 100 µM | > 100 µM | > 100 µM | > 100 µM | > 100 µM
Cc1cc2c(c(C=Nc3ccccc3O)c1)OC1(C=C2)Oc2ccccc2C(=O)N1C (configuration not stated) | 47.8 µM | 39.9 µM | 29.2 µM | 58.5 µM | 29.4 µM | 43.6 µM | 36.4 µM | 46.5 µM | 52.3 µM
C=C=C(CC1CCCCC1=O)S(=O)(=O)c1ccccc1 (configuration not stated) | > 10 µM | > 10 µM | > 10 µM | > 10 µM | > 10 µM | > 10 µM | > 10 µM | > 10 µM | > 10 µM
CC(ON(C(c1ccccc1)C(C)C)C(C)(C)C)c1ccccc1 (configuration not stated) | 28.7 µM | 32.8 µM | 33.7 µM | 59.2 µM | 30 µM | 51.7 µM | 29.7 µM | 32.5 µM | 42.9 µM
C#C[C@]1(O)CC[C@H]2[C@@H]3CCC4=C/C(=N/OCCN(C)C)CC[C@]4(C)[C@H]3CC[C@@]21C | > 100 µM | > 100 µM | > 100 µM | > 100 µM | 65.2 µM | > 100 µM | 78.3 µM | > 100 µM | > 100 µM

SMILES | TGI (BT-549 breast) | TGI (DU-145 prostate) | TGI (HCC-2998 colon) | TGI (IGROV1 ovarian) | TGI (OVCAR-3 ovarian) | TGI (OVCAR-8 ovarian) | TGI (SK-MEL-5 melanoma) | TGI (SN12C renal) | TGI (SNB-75 CNS)
C=CCN(c1cc(OCc2ccccc2)c2[nH]cc(C)c2c1)S(C)(=O)=O | > 100 µM | > 100 µM | > 100 µM | > 100 µM | > 100 µM | > 100 µM | > 100 µM | > 100 µM | 55.6 µM
O=C(O[C@@H](/C=C/c1ccccc1)P1(=O)N(Cc2ccccc2)[C@H]2CCCC[C@@H]2N1Cc1ccccc1)c1ccccc1 | > 100 µM | > 100 µM | 18.2 µM | > 100 µM | 33.9 µM | > 100 µM | 3.67 µM | 6.74 µM | > 100 µM
CC(=O)C1=C(C)N2C(=NC3=C(CCc4ccccc43)C2c2ccc(F)cc2)S1 (configuration not stated) | > 100 µM | > 100 µM | > 100 µM | > 100 µM | > 100 µM | > 100 µM | > 100 µM | > 100 µM | > 100 µM
CCc1n[nH]c(=O)n1/N=C/c1ccccc1O | > 100 µM | > 100 µM | > 100 µM | > 100 µM | > 100 µM | > 100 µM | > 100 µM | > 100 µM | > 100 µM
CC(O)(Cc1ccccc1C#N)Cc1ccccc1C#N | > 100 µM | > 100 µM | > 100 µM | > 100 µM | > 100 µM | > 100 µM | > 100 µM | > 100 µM | 98.9 µM
O=c1ccn(CC2(CO)CCC2)c(=O)[nH]1 | > 100 µM | > 100 µM | > 100 µM | > 100 µM | > 100 µM | > 100 µM | > 100 µM | > 100 µM | > 100 µM
Cc1cc(C)n(CC(Cn2nc(C)cc2C)=C(/C(Cl)=C(/Cl)Nc2ccc([N+](=O)[O-])cc2)[N+](=O)[O-])n1 | 15.7 µM | 14 µM | 11.7 µM | 8.17 µM | 15.2 µM | 14.6 µM | 4.97 µM | 17.6 µM | 14.3 µM
CC(=O)O[C@H]1C(=O)[C@@]2(C)[C@H]([C@H](OC(=O)c3cccc([N+](=O)[O-])c3)[C@]3(O)C[C@H](OC(=O)[C@H](O)[C@@H](NC(=O)c4ccccc4)c4ccccc4)C(C)=C1C3(C)C)[C@]1(OC(C)=O)CO[C@@H]1C[C@@H]2O | > 25 µM | > 25 µM | > 25 µM | > 25 µM | 0.0183 µM | > 25 µM | > 9.01 µM | > 25 µM | 0.295 µM
c1ccc2c(Cc3[nH]c4ccccc4c3Cc3c[nH]c4ccccc34)c[nH]c2c1 | 19.5 µM | 4.48 µM | 3.26 µM | 13.7 µM | 9.68 µM | 35.6 µM | 6.05 µM | 4.2 µM | 9.69 µM
O=C1CSC(/C=C/c2ccccc2)N1c1nc2cc3sc(N4C(=O)CSC4/C=C/c4ccccc4)nc3cc2s1 (configuration not stated) | > 100 µM | > 100 µM | > 100 µM | > 100 µM | > 100 µM | > 100 µM | > 100 µM | > 100 µM | > 100 µM
CC1(C)O[C@@H]([C@H](O)CO)[C@H](O)[C@@H](C2SCCCS2)O1 | > 100 µM | > 100 µM | > 100 µM | > 100 µM | > 100 µM | > 100 µM | > 100 µM | > 100 µM | > 100 µM
CCOC(=O)c1c(N)n(-c2ccccc2)c(=O)n(-c2ccccc2)c1=O | > 100 µM | > 100 µM | > 100 µM | > 100 µM | > 100 µM | > 100 µM | > 100 µM | > 100 µM | > 100 µM
CC(=O)C(=[N+]=[N-])C(=O)N1CCOC1=O | > 10 µM | > 10 µM | > 10 µM | > 10 µM | > 10 µM | > 10 µM | > 10 µM | > 10 µM | > 10 µM
COC(=O)C(N)CCCC(N)C(=O)NC(C)C(=O)NC(CCC(=O)NCCNCCNc1c2ccccc2nc2cccc([N+](=O)[O-])c12)C(N)=O (configuration not stated) | 38.5 µM | > 66.1 µM | 34.2 µM | > 100 µM | 47.7 µM | 42.3 µM | 18.1 µM | 39.5 µM | 26.1 µM
C=C1C(=O)O[C@H]2C/C(C)=C/CC[C@@]3(C)O[C@](C)(CC[C@@H]3I)[C@@H](I)C[C@@H]12 | 12.4 µM | 11.8 µM | 10.8 µM | 6.62 µM | 8.63 µM | 10.1 µM | 9.92 µM | 16.4 µM | 12.4 µM
CC(=O)Nc1c(S(=O)(=O)c2ccccc2)c(C)c(C)n1CCN(C)C | > 100 µM | > 100 µM | > 100 µM | > 100 µM | > 100 µM | > 100 µM | > 100 µM | > 100 µM | > 100 µM
